# Experimental data reported in patent US20030211076A1, “Compositions and methods for treatment of proliferative disorders” (priority 2003, published 2003).
# Tests used:
# [1] = tested on: porcine pulmonary arterial VEC; assay: Growth of VEGF165-stimulated VEC (cell counting); assay type: cell-based
# Protocol: The effects of LO oxidized VEGF165 on cell proliferation was also assessed. VEGF165 is a potent mitogen for vascular endothelial cells (VEC). Porcine pulmonary arterial VEC (2×10^4) were plated and incubated overnight in 35 mm-dishes containing 2 ml 15% FBS/M199 medium, and then refed with 5% FBS/M199 with different treatment regimens as shown in A, B and C of FIG. 18. FIG. 18A represents a dose response of VEGF165-stimulated cell growth. Media were supplemented with VEGF165 at the indicated doses and cells were incubated for additional 3 days. Cultures were refed once during the incubation period with fresh media supplemented with VEGF165 at indicated doses. Cells were harvested by trypsinization and counted with a hemacytometer. FIG. 18B represents the LO inhibition of VEGF165-stimulated cell growth. FIG. 18C represents the effects of inactivation of LO by BAPN on VEGF165-stimulated cell growth. […] Data represent the means (±sd) of three separate experiments each assessed with triplicate dishes.
# [2] = tested on: VEC on Matrigel; assay: Angiogenic response of Tat-stimulated VEC on Matrigel; assay type: cell-based
# Protocol: VEC grown on Matrigel, a solid gel of basement membrane proteins, rapidly align and form capillary-like structures providing a convenient in vitro model for angiogenesis studies (Albini et al., 1995; Grant et al.). Tat has been reported to enhance this in vitro morphogenesis of VEC consistent with its angiogenic property (Albini et al., 1995).
# Cells (3×10^5) were plated on Matrigel-coated dishes. After 1 h incubation, various reagents were added to each culture. […] The following represents FIG. 15 phase-contrast microscopy: A, control; B, 10 ng ml^−1 Tat; C, 10 ng ml^−1 Tat+10 nM LO; D, 10 ng ml^−1 Tat+10 nM LO that was preincubated with 100 μM BAPN for 15 min at 370; E, 100 μM BAPN, alone, and F, 10 nM LO, alone.
# [3] = tested on: transformed NIH 3T3 6-1 cells overexpressing FGF2; assay: LO inhibition of tumor cell growth (cell counting, phase-contrast and fluorescent microscopy); assay type: cell-based, mouse
# Protocol: Transformed NIH 3T3 6-1 cells (2×10^4) overexpressing FGF2 were plated and incubated overnight in 35 mm-dishes containing 2 ml 10% fetal bovine serum (FBS)/Dulbecco's Modified Eagle's (DME) medium, and then refed with 0.3% FBS/DMEM with different treatment regimens as shown in FIGS. 9A and 9B. FIG. 9A represents a dose response. Cells were treated with LO at various doses for a total of 6 days. Cultures were refed with fresh media supplemented with LO, as indicated, every two days. After treatment, cells were harvested by trypsinization and counted with a hemacytometer. FIG. 9B represents the effects of inactivation of LO by BAPN on tumor cell growth. LO was present at 25 nM and BAPN at 200 μM as indicated. Data represent the means (±sd) of three separate experiments each assessed with triplicate dishes.
# Numerical and morphological alterations in tumor cells treated with LO were observed under phase-contrast microscopy (25×). FIG. 10 comprises the following: A, control; B, 25 nM LO; C, 25 nM LO+200 μM BAPN; D, 200 μM BAPN alone; and E and F, LO uptake by NIH3T3 6-1 cells. In E and F, cells grown on coverslips were exposed to FITC-conjugated LO (0.16 μg/ml) for 2 h, then fixed and examined by fluorescent microscopy (100×).
# [4] = tested on: growth-arrested Swiss 3T3 cells; assay: PDGF-AB-stimulated cell cycle progression, FACS analysis; assay type: cell-based
# Protocol: Growth-arrested Swiss 3T3 cells were incubated for 20 h at 37° C. with or without PDGF-AB, LO, BAPN or their combinations as indicated. After incubation, FACS analysis was carried out to characterize the cell cycle progression under different conditions as described in FIG. 6. FIG. 20A represents a dose response of PDGF-AB in cell cycle progression. FIG. 20B represents the LO inhibition of PDGF-AB-stimulated cell cycle progression (the control represents cells treated with 15 ng ml^−1 PDGF-AB in the absence of added LO). FIG. 20C represents the effects of inactivation of LO by BAPN on PDGF-AB-stimulated the cell cycle progression. LO: 15 nM, PDGF-AB: 15 ng ml^−1, BAPN: 100 AM. Data represent the means (±sd) of three separate experiments each assessed with triplicate dishes.
# [5] = tested on: human recombinant FGF2 (18 kDa); assay: LO-catalyzed crosslinking of 125I-labeled FGF2, SDS-PAGE and autoradiography; assay type: biochemical; conditions: 5 μg 125I-FGF2 with 4 μg LO, 37° C., 1 h
# Protocol: To determine crosslinking of FGF2 monomers as a result of its oxidation by LO, human recombinant FGF2 (18 kDa) was iodinated and ^1251-labeled FGF2 (5 μg) and was then incubated with 4 μg of LO in 0.1 M sodium borate buffer, pH 8.2 in a final volume of 100 μl, at 37° C. for 1 h. The reaction was quenched by the addition of 100 μM BAPN followed by incubation at 37° C. for 30 min. Aliquots of the incubated reaction mixtures were analyzed by SDS-PAGE (15%) and autoradiography. Lane 1 represents [^125]FGF2; lane 2 represents [^1251]FGF2+LO. The relative electrophoretic mobilities of pre-stained molecular weight standards are indicated under MW.
Molecule,effect on LO inhibition of VEGF165-stimulated VEC proliferation ([1]; 100 μM BAPN),effect on LO-mediated inhibition of the angiogenic response ([2]; 10 nM LO preincubated with 100 μM BAPN for 15 min),"proliferation relative to the control ([3]; 200 μM BAPN added with 25 nM LO, 6 days) [fold]","tumor cell growth relative to the control ([3]; 200 μM BAPN in the absence of added LO, 6 days) [fold]",cell cycle progression relative to the level stimulated with PDGF-AB alone ([4]; 100 μM BAPN with LO 15 nM and 0.56 nM PDGF) [%],VEGF165-dependent cell growth ([1]; VEGF165 15 ng/ml),Tat-stimulated morphogenesis of VEC ([2]; 10 ng/ml Tat + 10 nM LO),crosslinking of FGF2 monomers [5],"decrease of cell number compared to the control (maximal inhibition) ([3]; 25 nM LO, 6 days, 0.3% FBS/DMEM) [%]","numerical and morphological alterations in tumor cells ([3]; 25 nM LO, phase-contrast microscopy)","decrease of PDGF-AB-induced cell cycle progression ([4]; 15 nM (0.48 μg/ml) LO, 0.56 nM PDGF-AB) [%]"
"N#CCCN [BAPN, β-Aminopropionitrile, reference compound]",effectively blocked,not prevented,3,2.5,100.4,–,–,–,–,–,–
lysyl oxidase [LO],–,–,–,–,–,inhibited VEGF165-dependent cell growth with increased doses,effectively blocked,"induced the appearance of covalent dimers, oligomers and higher polymers",95,induced cell death,73
